# Results published in patent US9084904B2, “Composition for external application” (OTSUKA PHARMACEUTICAL CO., LTD., priority 2008, dated 2015).
# System: JB6 CL 41-5A Cell Line, mouse epidermis
# Experiment: Influence of glucose on the intracellular ATP generation-promotion effect of AMP in cultured mouse epidermal cells (ATPlite luminescence)
# Assay type: cell-based
# Conditions: AMP 1 mM, 2 h
# Description: The following reports a test for examining the influence of glucose on the intracellular ATP generation-promotion effect given by AMP. Cultured mouse epidermal cells were used in the test.
# Cells: JB6 CL 41-5A Cell Line, mouse epidermis
# Culture medium: an MEM medium containing 5% FCS (Fetal Calf Serum)
# MEM medium (Nacalai Tesque), Fetal calf serum (GIBCO) AMP: disodium adenosine monophosphate (Yamasa Corporation)
# Glucose: D-glucose (Wako Pure Chemical Ind. Ltd.)
# ATP measurement: “ATPlite” Luminescence Assay System (Perkin Elmer)
# Microplate luminescence reader Anthos Lucy 1 (Aloka Co., Ltd.)
# Cultured mouse epidermal cells were inoculated in a 96-well microplate in an amount of 5.8×10^3 cells per well. After two hours, the medium was replaced with another culture medium containing a test sample of a predetermined quantity. After another two hours, the medium was removed, and the amount of ATP was measured.
# In the following experiment example, the content of glucose was 100 mg/dL, based on the fact that the normal fasting blood-sugar level of a living body is generally about 70 to 100 mg/dL.
# Three concentrations (101, 110, 200 mg/dL) of glucose were added to a normal culture medium (containing 100 mg/dL of glucose) so as to examine how each concentration affects the ATP generation-promotion effect of AMP (1 mM). […] The addition of glucose with a concentration of 110 mg/dL increased ATP generation by 25%, based on the concentration of 100 mg/dL that corresponds to the normal fasting blood-sugar level.
# Based on the result of Experiment Example 1, another experiment was performed as follows so as to confirm the influence of the glucose addition on the ATP generation-promotion effect of AMP by ensuring the increase of ATP generation by AMP (1 mM) when the glucose content is 101 mg/dL and 110 mg/dL, and ensuring the decrease of ATP generation by AMP (1 mM) when the glucose content is 200 mg/dL or higher.
# [1] = Experiment Example 2, glucose 600 mg/dL
smiles,measurement,setting,value
"Nc1ncnc2c1ncn2[C@@H]1O[C@H](COP(=O)([O-])[O-])[C@@H](O)[C@H]1O.[Na+].[Na+] [AMP, disodium adenosine monophosphate]",increase of ATP generation,"Experiment Example 1, glucose 110 mg/dL, based on 100 mg/dL glucose",25%
same,ATP generation,"Experiment Example 1, glucose 200 mg/dL",lower than when the glucose content was 110 mg/dL and AMP was 1 mM
same,ATP generation,"Experiment Example 1, glucose content increased from 101 to 110 mg/dL",ATP generation increased
same,increase of ATP generation,"Experiment Example 2, glucose 101 mg/dL",≥ 30%
same,increase of ATP generation,"Experiment Example 2, glucose 110 mg/dL",≥ 30%
same,ATP generation,"Experiment Example 2, glucose 200 mg/dL",lower than when the glucose content was 100 mg/dL and AMP was 1 mM
same,ATP generation compared with AMP-free medium containing 100 mg/dL glucose,[1],not significantly lower
same,ATP generation-promotion effect of AMP,[1],small
